How the values were obtained:
Assay type in all cases: in vivo
[1] = test system: Euschistus heros (Neotropical Brown Stink Bug); experiment: Example B6: activity against Euschistus heros, sprayed soybean leaf; conditions: 120 h, application rate 200 ppm, N-2 nymphs, 5 days after infestation, read-out: effect in at least one of the two categories (mortality or growth inhibition)
Procedure: Soybean leaf on agar in 24-well microtiter plates were sprayed with aqueous test solutions prepared from 10'000 ppm DMSO stock solutions. After drying the leaf were infested with N-2 nymphs. The samples were assessed for mortality and growth inhibition in comparison to untreated samples 5 days after infestation.

[2] = test system: Thrips tabaci (Onion Thrips); experiment: Example B7: activity against Thrips tabaci, sprayed sunflower leaf discs; conditions: foliar, 144 h, application rate 200 ppm, population of mixed ages, 6 days after infestation
Procedure: Sunflower leaf discs were placed on agar in 24-well microtiter plates and sprayed with aqueous test solutions prepared from 10'000 ppm DMSO stock solutions. After drying the leaf discs were infested with a Thrips population of mixed ages. The samples were assessed for mortality 6 days after infestation.

[3] = test system: Myzus persicae (Green Peach Aphid); experiment: Example B2: activity against Myzus persicae, sprayed sunflower leaf discs; conditions: foliar, 144 h, application rate 200 ppm, aphid population of mixed ages, 6 days after infestation
Procedure: Sunflower leaf discs were placed on agar in a 24-well microtiter plate and sprayed with aqueous test solutions prepared from 10'000 ppm DMSO stock solutions. After drying, the leaf discs were infested with an aphid population of mixed ages. The samples were assessed for mortality 6 days after infestation.

[4] = test system: Plutella xylostella (Diamond Back Moth); experiment: Example B1: activity against Plutella xylostella, artificial diet in 24-well plates; conditions: 120 h, application rate 200 ppm, L2 larvae on artificial diet, 5 days after infestation, read-out: effect in at least one of the two categories (mortality or growth inhibition)
Procedure: 24-well microtiter plates with artificial diet were treated with aqueous test solutions prepared from 10'000 ppm DMSO stock solutions by pipetting. After drying, the plates were infested with L2 larvae (10 to 15 per well). The samples were assessed for mortality and growth inhibition in comparison to untreated samples 5 days after infestation.

[5] = test system: Myzus persicae (Green Peach Aphid); experiment: Example B3: activity against Myzus persicae, roots of pea seedlings in test solution; conditions: 144 h, test rate 24 ppm, roots of infested pea seedlings in test solution, 6 days
Procedure: Roots of pea seedlings infested with an aphid population of mixed ages were placed directly in the aqueous test solutions prepared from 10'000 DMSO stock solutions. The samples were assessed for mortality 6 days after placing seedlings in test solutions.

[6] = test system: Bemisia tabaci (Cotton White Fly); experiment: Example B5: activity against Bemisia tabaci, sprayed cotton leaf discs; conditions: foliar, 144 h, application rate 200 ppm, adult white flies, 6 days after incubation
Procedure: Cotton leaf discs were placed on agar in 24-well microtiter plates and sprayed with aqueous test solutions prepared from 10'000 ppm DMSO stock solutions. After drying the leaf discs were infested with adult white flies. The samples were checked for mortality 6 days after incubation.

[7] = test system: Tetranychus urticae (Two-Spotted Spider Mite); experiment: Example B7: activity against Tetranychus urticae, sprayed bean leaf discs; conditions: foliar, 192 h, application rate 200 ppm, mixed population (mobile stages), 8 days after infestation
Procedure: Bean leaf discs on agar in 24-well microtiter plates were sprayed with aqueous test solutions prepared from 10'000 ppm DMSO stock solutions. After drying the leaf discs were infested with a mite population of mixed ages. The samples were assessed for mortality on mixed population (mobile stages) 8 days after infestation.

[8] = test system: Frankliniella occidentalis (Western Flower Thrips); experiment: Example B4: activity against Frankliniella occidentalis, sprayed sunflower leaf discs; conditions: foliar, 168 h, application rate 200 ppm, population of mixed ages, 7 days after infestation
Procedure: Sunflower leaf discs were placed on agar in 24-well microtiter plates and sprayed with aqueous test solutions prepared from 10'000 DMSO stock solutions. After drying the leaf discs were infested with a Frankliniella population of mixed ages. The samples were assessed for mortality 7 days after infestation.

[9] = test system: Diabrotica Balteata (Corn Root Worm); experiment: Example B7: activity against Diabrotica balteata, sprayed maize sprouts; conditions: 96 h, application rate 200 ppm, L2 larvae, 4 days after infestation, read-out: effect in at least one of the two categories (mortality or growth inhibition)
Procedure: Maize sprouts placed onto an agar layer in 24-well microtiter plates were treated with aqueous test solutions prepared from 10'000 ppm DMSO stock solutions by spraying. After drying, the plates were infested with L2 larvae (6 to 10 per well). The samples were assessed for mortality and growth inhibition in comparison to untreated samples 4 days after infestation.

[10] = test system: Spodoptera littoralis (Egyptian Cotton Leaf Worm); experiment: Example B7: activity against Spodoptera littoralis, sprayed cotton leaf discs; conditions: foliar, 72 h, application rate 200 ppm, L1 larvae, 3 days after infestation
Procedure: Cotton leaf discs were placed onto agar in 24-well microtiter plates and sprayed with aqueous test solutions prepared from 10'000 ppm DMSO stock solutions. After drying the leaf discs were infested with five L1 larvae. The samples were assessed for mortality, anti-feeding effect, and growth inhibition in comparison to untreated samples 3 days after infestation. Control of Spodoptera littoralis by a test sample is given when at least one of the categories mortality, anti-feedant effect, and growth inhibition is higher than the untreated sample.

CCS(=O)(=O)c1cc(N=S(C)(C)=O)cnc1-c1nc2cc(C(F)(F)F)ncc2n1C [P2, [5-ethylsulfonyl-6-[3-methyl-6-(trifluoromethyl)imidazo[4,5-c]pyridin-2-yl]-3-pyridyl]imino-dimethyl-oxo-λ^6-sulfane]
≥ 80%: percent effect (mortality or growth inhibition) at 200 ppm [1] | mortality at 200 ppm [2] | mortality at 200 ppm [3] | percent effect (mortality or growth inhibition) at 200 ppm [4] | mortality at 24 ppm [5] | mortality at 200 ppm [6] | mortality at 200 ppm [7] | mortality at 200 ppm [8] | percent effect (mortality or growth inhibition) at 200 ppm [9] | percent control (mortality, anti-feedant effect or growth inhibition) at 200 ppm [10]

Source: patent US10961248B2, “Pesticidally active heterocyclic derivatives with sulfur containing substituents” (SYNGENTA PARTICIPATIONS AG, priority 2016, dated 2021)
